Results as given in paper PMC12142043, “Cell-based high-content approach for SARS-CoV-2 neutralization identifies unique monoclonal antibodies and PI3K pathway inhibitors” (Frontiers in Cell and Developmental Biology, 2025).
Counter-ions that a name gives are not always drawn. Like-named read-outs stand apart in the source and are kept apart here.

Tested on: SARS-CoV-2 (USA-WA1/2020) in Calu-3 cells
Format: cell-based
[1] = high dose (10 µM), Calu-3, 48 h
[2] = low dose (100 nM), Calu-3, 48 h

Row | SMILES | dsRNA signal, AU High [1] | dsRNA signal, AU Low [2] | dsRNA signal, AU High | dsRNA signal, AU Low
1 | Cn1nccc1Nc1nccc(-c2ccn([C@H](CO)c3ccc(Cl)c(F)c3)c(=O)c2)n1 [GDC-0994] | 4912.8 AU | 7646.0 AU | – | –
2 | O=C(Nc1nc2cccc(-c3ccc(CN4CCS(=O)(=O)CC4)cc3)n2n1)C1CC1 [GLPG0634] | 36.1 AU | 2690.2 AU | – | –
3 | CNc1nc(Nc2cnn([C@H]3CCN(C4COC4)C[C@@H]3F)c2Cl)ncc1C(F)(F)F [GNE-9605] | 40803.1 AU | 41939.9 AU | – | –
4 | NC(=O)c1cccc(-c2cc(Nc3ccc(OC(F)(F)F)cc3)ncn2)c1 [GNF 2] | 2578.1 AU | 60765.8 AU | – | –
5 | O=C(NCCO)c1cccc(-c2cc(Nc3ccc(OC(F)(F)F)cc3)ncn2)c1 [GNF 5] | 498.5 AU | 65630.6 AU | – | –
6 | Cc1ccc(NC(=O)Nc2cc(C(F)(F)F)ccc2F)cc1Nc1ccc2c(c1)NC(=O)/C2=C\c1ccc[nH]1 [GNF-5837] | 2750.0 AU | 23319.5 AU | – | –
7 | c1cn2cc(-c3ccc4cn[nH]c4c3)nc(Nc3ccc(N4CCOCC4)cc3)c2n1 [GS-9973] | 32878.5 AU | 51541.3 AU | – | –
8 | CC1=C(C(=O)Nc2cc3cn[nH]c3cc2F)C(c2ccc(C(F)(F)F)cc2)CC(=O)N1 (stereo not shown) [GSK429286A] | 10329.9 AU | 34075.4 AU | – | –
9 | CCn1c(-c2nonc2N)nc2c(C#CC(C)(C)O)ncc(OC[C@H]3CCCNC3)c21 [GSK690693] | 6007.3 AU | 39582.1 AU | – | –
10 | O=C1NC(=O)/C(=C/c2ccc3nccc(-c4ccncc4)c3c2)S1 [GSK1059615] | 832.8 AU | 16639.6 AU | – | –
11 | Cn1cc(-c2ccc3c(c2)CCN3C(=O)Cc2cccc(C(F)(F)F)c2)c2c(N)ncnc21 [GSK2606414] | 6871.8 AU | 28375.6 AU | – | –
12 | Cc1cccc(CC(=O)N2CCc3c2ccc(-c2cn(C)c4ncnc(N)c24)c3F)n1 [GSK2656157] | 2371.9 AU | 33522.6 AU | – | –
13 | COc1ccc(COc2ccc(Cc3cnc(N)nc3N)cc2OC)cc1 [GW2580] | 17974.9 AU | 13531.9 AU | – | –
14 | O=C1Nc2ccc(I)cc2/C1=C/c1cc(Br)c(O)c(Br)c1 [GW5074] | 14683.4 AU | 20240.6 AU | – | –
15 | Cn1cc(/C=C2\C(=O)Nc3cccnc32)c2ccccc21 [GW441756] | 33214.4 AU | 18067.5 AU | – | –
16 | O=C(NC1CCOCC1)c1ccc(-c2cc(-c3c[nH]nc3-c3ccccn3)ccn2)cc1 [GW788388] | 8820.5 AU | 0.0 AU | – | –
17 | Cc1ccc(C(=O)Nc2ccc(CN3CCN(C)CC3)c(C(F)(F)F)c2)cc1C#Cc1cnc2[nH]ncc2c1 [GZD824] | 64275.0 AU | 33439.8 AU | – | –
18 | O=c1c(O)c(-c2ccccc2)oc2cc(O)cc(O)c12 [Galangin;3,5,7-Trihydroxyflavone] | 16189.5 AU | 46015.9 AU | – | –
19 | COc1cc2ncnc(Nc3ccc(F)c(Cl)c3)c2cc1OCCCN1CCOCC1.Cl [Gefitinib hydrochloride] | – | – | 0.0 | 28000.5

Row | SMILES | dsRNA signal, AU High [1] | dsRNA signal, AU Low [2] | dsRNA signal, AU High | dsRNA signal, AU Low
20 | CC(C)=CCC[C@](C)(O[C@@H]1O[C@H](CO[C@@H]2O[C@H](CO)[C@@H](O)[C@H](O)[C@H]2O)[C@@H](O)[C@H](O)[C@H]1O)[C@H]1CC[C@]2(C)[C@@H]1[C@H](O)C[C@@H]1[C@@]3(C)CC[C@H](O[C@@H]4O[C@H](CO)[C@@H](O)[C@H](O)[C@H]4O[C@@H]4O[C@H](CO)[C@@H](O)[C@H](O)[C@H]4O)C(C)(C)[C@@H]3CC[C@]12C [Ginsenoside Rb1] | 7414.4 AU | 52585.8 AU | – | –
21 | CC(C)=CCC[C@](C)(O[C@@H]1O[C@H](CO)[C@@H](O)[C@H](O)[C@H]1O)[C@H]1CC[C@]2(C)[C@@H]1[C@H](O)C[C@@H]1[C@@]3(C)CC[C@H](O)C(C)(C)[C@@H]3[C@@H](O[C@@H]3O[C@H](CO)[C@@H](O)[C@H](O)[C@H]3O[C@@H]3O[C@@H](C)[C@H](O)[C@@H](O)[C@H]3O)C[C@]12C [Ginsenoside Re] | 10054.1 AU | 65920.2 AU | – | –
22 | CC(C)=CCC[C@](C)(O)[C@H]1CC[C@]2(C)[C@@H]1[C@H](O)C[C@@H]1[C@@]3(C)CC[C@H](O[C@@H]4O[C@H](CO)[C@@H](O)[C@H](O)[C@H]4O)C(C)(C)[C@@H]3CC[C@]12C [Ginsenoside Rh2] | 41827.1 AU | 30569.1 AU | – | –
23 | COc1ccc2c(c1)c(C1=C(c3c[nH]c4ccccc34)C(=O)NC1=O)cn2CCCN(C)C [Go 6983] | 52923.0 AU | 26190.1 AU | – | –
24 | CN1CCN(C2CCN(C(=O)Nc3cc(Oc4ccc(NC(=O)C5(C(=O)Nc6ccc(F)cc6)CC5)c(F)c4)ccn3)CC2)CC1 [Golvatinib (E7050)] | 36777.1 AU | 23267.5 AU | – | –
25 | Cl.Cl.O=S(=O)(NCCNC/C=C/c1ccc(Br)cc1)c1cccc2cnccc12 [H 89 2HCl] | 7807.6 AU | 56279.7 AU | – | –
26 | Cl.O=S(=O)(c1cccc2cnccc12)N1CCNCC1 [HA-100 (hydrochloride)] | 27295.9 AU | 14084.7 AU | – | –
27 | CCOC(=O)c1cnc2ccc(-c3cncc(NS(=O)(=O)c4ccccc4)c3)cn12 [HS-173] | 345.7 AU | 31987.4 AU | – | –
28 | Cc1nc(Nc2cnn(C3CCNCC3)c2)nc2c1N(C)C(=O)c1cc3ccccc3cc1N2C [HTH-01-015] | 4731.3 AU | 21129.9 AU | – | –
29 | COc1ccc2c(c1)[nH]c1c(C)nccc12 [Harmine hydrochloride] | 0.0 AU | 53937.1 AU | – | –
30 | COc1ccc2c(c1)[nH]c1c(C)nccc12 [Harmine] | 9958.7 AU | 24294.0 AU | – | –
31 | Cl.O=c1[nH]ccc2c(S(=O)(=O)N3CCCNCC3)cccc12 [Hydroxyfasudil hydrochloride] | 2331.1 AU | 751.7 AU | – | –
32 | COc1cc(OC)c(C=C2C(O)=Nc3ccccc32)c(OC)c1 [IC261] | 6564.9 AU | 46952.8 AU | – | –
33 | O=C(Nc1cc(C(F)(F)F)cc(C(F)(F)F)c1)c1cc(Cl)ccc1O [IMD 0354] | 3341.9 AU | 20862.1 AU | – | –
34 | CNC(=O)c1ccc(-c2cnc3ncc(Cc4ccc5ncccc5c4)n3n2)cc1F [INCB28060] | 59276.3 AU | 63091.3 AU | – | –
35 | COc1cc(N2CCOCC2)ccc1NC(=O)c1csc(-c2cccnc2)n1 [IRAK inhibitor 6] | 19776.5 AU | 7334.0 AU | – | –
36 | O=C(Nc1nc2ccccc2n1CCN1CCOCC1)c1cccc([N+](=O)[O-])c1 [IRAK-1-4 Inhibitor I] | 21347.7 AU | 22363.0 AU | – | –
37 | C#Cc1cccc(Nc2ncnc3cc4c(cc23)OCCOCCOCCO4)c1 [Icotinib] | 11365.1 AU | 24561.1 AU | – | –
38 | Nc1nc(Nc2ccc(S(N)(=O)=O)cc2)nn1C(=O)c1c(F)cccc1F [JNJ-7706621] | 0.0 AU | 4378.3 AU | – | –
